Data as given in the supplement of paper PMC10307832.

Tests used:
Test in all cases: relative viability (nuclei count vs DMSO), 5 days (fraction); higher = more cells survive
[1] = system: NCI-H1648
Summary of the method: (§1)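 Nuclei were stained with Hoechst during a one-step fixation (final 0.05% Triton X-100, 1% formaldehyde, 1 ug/ml Hoechst) carried out 5 days after dosing, then counted on 4× images. The cells, lung cancer lines in 1536-well plates, had been dosed by pin tool the day after seeding with one drug alone or a fixed anchor-drug dose plus five library-drug doses (not always all listed) in √10 steps. Relative viability is the nuclei count in treated wells divided by that in vehicle wells, and each value is the median of duplicate plates.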

[2] = system: UMC-11
Summary of the method: as §1

[3] = system: NCI-H1703
Summary of the method: as §1

[4] = system: A549
Summary of the method: as §1

[5] = system: IA-LM
Summary of the method: as §1

SMILES | relative viability ([1]; first compound 0.04 µM) | relative viability ([1]; first compound 0.1265 µM) | relative viability ([1]; first compound 0.4 µM) | relative viability ([1]; first compound 1.265 µM) | relative viability ([1]; first compound 4 µM) | relative viability ([2]; first compound 0.04 µM) | relative viability ([2]; first compound 0.1265 µM) | relative viability ([2]; first compound 0.4 µM) | relative viability ([2]; first compound 1.265 µM) | relative viability ([2]; first compound 4 µM) | relative viability ([3]; first compound 0.04 µM) | relative viability ([3]; first compound 0.1265 µM) | relative viability ([3]; first compound 1.265 µM) | relative viability ([3]; first compound 4 µM) | relative viability ([4]; first compound 0.04 µM) | relative viability ([4]; first compound 0.1265 µM) | relative viability ([4]; first compound 0.4 µM) | relative viability ([4]; first compound 1.265 µM) | relative viability ([4]; first compound 4 µM) | relative viability ([5]; first compound 0.04 µM) | relative viability ([5]; first compound 0.1265 µM) | relative viability ([5]; first compound 0.4 µM) | relative viability ([5]; first compound 1.265 µM) | relative viability ([5]; first compound 4 µM) | relative viability ([3]; first compound 0.4 µM)
COc1cc(N2CCC(C(N)=O)CC2)ccc1Nc1nc(N)c(Cl)c(Nc2ccccc2S(=O)(=O)C(C)C)n1 [HG-5-88-01] + CC(=O)c1c(C)c2cnc(Nc3ccc(N4CCNCC4)cn3)nc2n(C2CCCC2)c1=O [Palbociclib] (partner 0.5 µM) | 0.291 | 0.27 | 0.321 | 0.206 | 0.244 | 0.321 | 0.369 | 0.297 | 0.348 | 0.308 | – | – | – | – | – | – | – | – | – | – | – | – | – | – | –
COc1cc(N2CCC(C(N)=O)CC2)ccc1Nc1nc(N)c(Cl)c(Nc2ccccc2S(=O)(=O)C(C)C)n1 [HG-5-88-01] + NC(=O)Nc1cc(-c2cccc(F)c2)sc1C(=O)N[C@H]1CCCNC1 [AZD7762] (partner 0.2 µM) | 0.63 | 0.624 | 0.695 | 0.683 | 0.654 | – | – | – | – | – | 0.106 | 0.133 | 0.122 | 0.124 | – | – | – | – | – | – | – | – | – | – | –
COc1cc(N2CCC(C(N)=O)CC2)ccc1Nc1nc(N)c(Cl)c(Nc2ccccc2S(=O)(=O)C(C)C)n1 [HG-5-88-01] + Nc1nc2[nH]cc(CCc3ccc(C(=O)N[C@@H](CCC(=O)O)C(=O)O)cc3)c2c(=O)[nH]1 [Pemetrexed] (partner 0.2 µM) | 0.772 | 0.719 | 0.605 | 0.596 | 0.562 | 0.797 | 0.772 | 0.844 | 0.827 | 0.789 | – | – | – | – | – | – | – | – | – | – | – | – | – | – | –
COc1cc(N2CCC(C(N)=O)CC2)ccc1Nc1nc(N)c(Cl)c(Nc2ccccc2S(=O)(=O)C(C)C)n1 [HG-5-88-01] + Nc1ncn([C@H]2C[C@H](O)[C@@H](CO)O2)c(=O)n1 [Decitabine] (partner 2 µM) | 0.5 | 0.443 | 0.457 | 0.359 | 0.292 | 0.638 | 0.706 | 0.604 | 0.526 | 0.672 | – | – | – | – | 0.296 | 0.34 | 0.274 | 0.246 | 0.388 | – | – | – | – | – | –
COc1cc(N2CCC(C(N)=O)CC2)ccc1Nc1nc(N)c(Cl)c(Nc2ccccc2S(=O)(=O)C(C)C)n1 [HG-5-88-01] + O=C(CCCCCCC(=O)Nc1ccccc1)NO [Vorinostat] (partner 1 µM) | 0.616 | 0.307 | 0.626 | 0.308 | 0.301 | 0.437 | 0.442 | 0.354 | 0.33 | 0.288 | – | – | – | – | – | – | – | – | – | 1.03 | 1.01 | 0.776 | 0.825 | 0.899 | –
Clc1ccc(Nc2nnc(Cc3ccncc3)c3ccccc23)cc1 [Vatalanib] + CC(=O)Nc1cccc(-n2c(=O)n(C3CC3)c(=O)c3c(Nc4ccc(I)cc4F)n(C)c(=O)c(C)c32)c1 [Trametinib] (partner 0.02 µM) | 0.407 | 0.463 | 0.577 | 0.467 | 0.578 | 0.761 | 0.769 | 0.418 | 0.688 | 0.847 | – | – | – | – | – | – | – | – | – | – | – | – | – | – | –
Clc1ccc(Nc2nnc(Cc3ccncc3)c3ccccc23)cc1 [Vatalanib] + CC(=O)c1c(C)c2cnc(Nc3ccc(N4CCNCC4)cn3)nc2n(C2CCCC2)c1=O [Palbociclib] (partner 0.5 µM) | 0.268 | 0.307 | 0.26 | 0.233 | 0.302 | 0.3 | 0.316 | 0.34 | 0.356 | 0.338 | – | – | – | – | – | – | – | – | – | – | – | – | – | – | –
Clc1ccc(Nc2nnc(Cc3ccncc3)c3ccccc23)cc1 [Vatalanib] + NC(=O)Nc1cc(-c2cccc(F)c2)sc1C(=O)N[C@H]1CCCNC1 [AZD7762] (partner 0.2 µM) | 0.528 | 0.632 | 0.665 | 0.655 | 0.735 | – | – | – | – | – | 0.128 | 0.14 | – | 0.109 | – | – | – | – | – | – | – | – | – | – | 0.126
Clc1ccc(Nc2nnc(Cc3ccncc3)c3ccccc23)cc1 [Vatalanib] + Nc1nc2[nH]cc(CCc3ccc(C(=O)N[C@@H](CCC(=O)O)C(=O)O)cc3)c2c(=O)[nH]1 [Pemetrexed] (partner 0.2 µM) | 0.67 | 0.674 | 0.691 | 0.741 | 0.718 | 0.849 | 0.808 | 0.844 | 0.791 | 0.794 | – | – | – | – | – | – | – | – | – | – | – | – | – | – | –
Clc1ccc(Nc2nnc(Cc3ccncc3)c3ccccc23)cc1 [Vatalanib] + Nc1ncn([C@H]2C[C@H](O)[C@@H](CO)O2)c(=O)n1 [Decitabine] (partner 2 µM) | 0.497 | 0.462 | 0.514 | 0.425 | 0.482 | 1.08 | 0.624 | 0.462 | 0.563 | 0.619 | – | – | – | – | 0.238 | 0.451 | 0.313 | 0.213 | 0.295 | – | – | – | – | – | –
Clc1ccc(Nc2nnc(Cc3ccncc3)c3ccccc23)cc1 [Vatalanib] + O=C(CCCCCCC(=O)Nc1ccccc1)NO [Vorinostat] (partner 1 µM) | 0.32 | 0.644 | 0.562 | 0.42 | 0.444 | 0.361 | 0.469 | 0.384 | 0.35 | 0.415 | – | – | – | – | – | – | – | – | – | 0.952 | 1.24 | 0.895 | 0.99 | 0.976 | –
